The record followed here is patent US6355799B1, “Substituted benzene compounds, process for their preparation, and herbicidal and defoliant compositions containing them” (ISK Americas Incorporated, priority 1997, dated 2002).

Read-outs that look alike come from different tables or passages of the source.

Common to all, as to assay type: in vivo
The subject of assay [1] is common ragweed (Ambrosia artemisizfolia L., AMBEL). The assay is described as follows: Pre-emerge test, greenhouse herbicide activity screening. The note with it: for Pre-emerge Herbicidal Activity AMBEL (phytotoxicity rating, scale 0-100): rated 14 days after application, 0 = no damage, 100 = complete death; for Pre-emerge Herbicidal Activity AMBEL: phytotoxicity rating 0-100, 14 days after application. The method, boiled down: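 Compounds in acetone were track-sprayed at 15-1000 g ai/ha (187 l/ha) on sandy loam pots: pre-emerge one day after seeding, post-emerge at 2-3 leaf stage with 0.25% v/v non-ionic surfactant. Phytotoxicity was rated 14 days later on a 0 (no damage) to 100 (complete death) scale.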

The test system of assay [2] is redroot pigweed (Amaranthus retroflexus, AMARE). Put plainly: Post-emerge test, greenhouse herbicide activity screening. The settings on record: for pest or weed control at 63 g/ha / pest or weed control at 250 g/ha: Amaranthus retroflexus, post-emergence, 336 h, read-out: Post-emerge Herbicidal Activity AMARE. An outline of the steps:
(§1)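 Compounds in acetone were track-sprayed at 15–1000 g ai/ha: pre-emergence onto soil sown the previous day, then top-watered to incorporate and later bottom-watered; post-emergence onto 2–3 leaf plants with 0.25% v/v surfactant, bottom-watered only. Ratings on a 0–100 phytotoxicity scale were taken at day 14.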

For assay [3], the system named is large crabgrass (Digitaria sanguinalis, DIGSA). Described as above. The settings on record: for pest or weed control at 63 g/ha / pest or weed control at 250 g/ha: Digitaria sanguinalis, post-emergence, 336 h, read-out: Post-emerge Herbicidal Activity DIGSA; for phytotoxicity rating DIGSA: rating scale 0-100. An outline of the steps:
as §1

Assay [4] has as its system common ragweed (Ambrosia artemisizfolia L., AMBEL). The description is as above. The method, boiled down: as §1
For assay [5], the system named is redroot pigweed (Amaranthus retroflexus, AMARE). The assay is described as follows: Pre-emerge test, greenhouse herbicide activity screening. The settings on record: for Pre-emerge Herbicidal Activity AMARE (phytotoxicity rating, scale 0-100): rated 14 days after application, 0 = no damage, 100 = complete death; for pest or weed control at 63 g/ha / pest or weed control at 250 g/ha: Amaranthus retroflexus, pre-emergence, 336 h, read-out: Pre-emerge Herbicidal Activity AMARE; for Pre-emerge herbicidal activity, phytotoxicity rating AMARE: rating scale 0-100, 14 days after application. An outline of the steps: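 Sandy loam pots; pre-emerge: sown 1 d pre-spray, surface-watered after, then bottom-watered. Post-emerge: sown 8–21 d before, 2–3 leaf stage, + 0.25% v/v NIS, bottom-watered. Acetone, 187 l/ha track spray, 15–1000 g ai/ha. 0–100 injury score, day 14.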

Setting [6] is: 63 g ai/ha, phytotoxicity rating 0-100 (0 no damage, 100 complete death), 14 days after application.
Where [7] appears, read: 250 g ai/ha, phytotoxicity rating 0-100 (0 no damage, 100 complete death), 14 days after application.
[8] abbreviates: post-emerge, 63 g ai/ha, phytotoxicity rating 0-100 at 14 days after application.
Where [9] appears, read: post-emerge, 250 g ai/ha, phytotoxicity rating 0-100 at 14 days after application.
Setting [10] is: pre-emerge, rate 63 g ai/ha, phytotoxicity rating 0-100 at 14 days after application.
Setting [11] is: pre-emerge, rate 250 g ai/ha, phytotoxicity rating 0-100 at 14 days after application.

On to `COc1c(Cl)cc(F)c(-n2c(=O)cc(C(F)(F)F)n(C)c2=O)c1[N+](=O)[O-]` [Compound 1-5, 3-(4-chloro-6-fluoro-3-methoxy-2-nitrophenyl)-1-methyl-6-trifluoromethyl-2,4(1H, 3H)-pyrimidinedione], for which the “Pre-emerge Herbicidal Activity AMBEL (phytotoxicity rating, scale 0-100)” value in assay [1] (63 g ai/ha) turned out to be 0; in assay [1] (250 g ai/ha), 20. Besides, the pest or weed control at 63 g/ha in assay [2] (setting [6]) and in assay [3] (setting [6]) was 0% throughout. The pest or weed control at 250 g/ha in assay [2] (setting [7]) was 40%; in assay [3] (setting [7]), 0%. In addition, the “Post-emerge Herbicidal Activity AMBEL” value in assay [4] (setting [6]) worked out at 0; in assay [4] (setting [7]), 30. Besides, the “Pre-emerge Herbicidal Activity AMARE (phytotoxicity rating, scale 0-100)” value is recorded as 20 in assay [5] (63 g ai/ha, pre-emerge) and 95 in assay [5] (250 g ai/ha, pre-emerge).

On to `Cn1c(C(F)(F)F)cc(=O)n(-c2c(F)cc(Cl)c(OC(F)F)c2N)c1=O` [Compound 1-38, 3-(2-amino-4-chloro-3-difluoromethoxy-6-fluorophenyl)-1-methyl-6-trifluoromethyl-2,4(1H, 3H)-pyrimidinedione], for which the pest or weed control at 63 g/ha in assay [2] (setting [6]) amounted to 80%; in assay [3] (setting [6]), 10%. For the same compound, the pest or weed control at 250 g/ha in assay [2] (setting [7]) came to 100%; in assay [3] (setting [7]) it was 80%. The “Pre-emerge Herbicidal Activity AMARE (phytotoxicity rating, scale 0-100)” value was 100 in assay [5] (63 g ai/ha, pre-emerge) and 100 in assay [5] (250 g ai/ha, pre-emerge).

As to `COc1c(Cl)cc(F)c(-n2c(=O)cc(C(F)(F)F)n(C)c2=O)c1NC(N)=O` [Compound 3-26, 3-(2-aminocarbonylamino-4-chloro-6-fluoro-3-methoxyphenyl)-1-methyl-6-trifluoromethyl-2,4(1H, 3H)-pyrimidinedione], the “Pre-emerge Herbicidal Activity AMBEL” value in assay [1] (63 g ai/ha) is recorded as 10; in assay [1] (250 g ai/ha), 90. Further, the “phytotoxicity rating AMARE” value came out at 50 in assay [2] (post-emerge, 63 g ai/ha, 14 days after application, rating scale 0-100 (0 no damage, 100 complete death)) and 65 in assay [2] (post-emerge, 250 g ai/ha, 14 days after application, rating scale 0-100). Also, the “phytotoxicity rating DIGSA” value is on record as 0 in assay [3] (post-emerge, 63 g ai/ha, 14 days after application) and 0 in assay [3] (post-emerge, 250 g ai/ha, 14 days after application). Also, the pest or weed control at 63 g/ha in assay [5] (63 g ai/ha, phytotoxicity rating 0-100, 14 days after application) stood at 80%. Moreover, in assay [5] (250 g ai/ha, phytotoxicity rating 0-100, 14 days after application), the pest or weed control at 250 g/ha was 100%.

As for `CC(C)Oc1c(Cl)cc(F)c(-n2nnn(CCCF)c2=O)c1N` [Compound 5-18, 1-(2-amino-4-chloro-6-fluoro-3-isopropyloxyphenyl)-4-(3fluoropropyl)-1,4-dihydro-5-oxo-5H-tetrazole], the pest or weed control at 63 g/ha amounted to 0% in assay [2] (setting [8]), 0% in assay [3] (setting [8]) and 30% in assay [5] (setting [10]). Also, the pest or weed control at 250 g/ha in assay [2] (setting [9]) is 10%; in assay [3] (setting [9]), 0%; in assay [5] (setting [11]), 0%.

For the compound `COc1c(Cl)cc(F)c(-n2nc(C)n(C(F)F)c2=O)c1NC(=O)c1ccc2ccccc2c1` [Compound 6-15], the results for the pest or weed control at 63 g/ha in assay [2] (setting [8]), in assay [3] (setting [8]) and in assay [5] (setting [10]) were 100%, 30% and 100%, respectively. Further, the pest or weed control at 250 g/ha in assay [2] (setting [9]) was 100%; in assay [3] (setting [9]), 60%; in assay [5] (setting [11]) it was 100%.

In the case of `Cc1nn(-c2c(Cl)cc(Cl)cc2NC(=O)c2ccc3ccccc3c2)c(=O)n1C(F)F` [Compound 6-16], the results for the pest or weed control at 63 g/ha in assay [2] (setting [8]), in assay [3] (setting [8]) and in assay [5] (setting [10]) were 100%, 20% and 30%, respectively. Further, the pest or weed control at 250 g/ha stood at 90% in assay [2] (setting [9]), 30% in assay [3] (setting [9]) and 50% in assay [5] (setting [11]).

`COc1c(Cl)cc(Cl)c(-n2nc(C)n(C(F)F)c2=O)c1NC(=O)c1ccc2ccccc2c1` [Compound 6-17]: the pest or weed control at 63 g/ha in assay [2] (setting [8]) came out at 60%; in assay [3] (setting [8]) it was 0%; in assay [5] (setting [10]), 90%. Also, the pest or weed control at 250 g/ha was 70% in assay [2] (setting [9]), 20% in assay [3] (setting [9]) and 100% in assay [5] (setting [11]).

As to `Cc1nn(-c2c(Cl)cc(Cl)c(N)c2N)c(=O)n1C(F)F` [Compound 6-20], the pest or weed control at 63 g/ha in assay [2] (setting [8]) turned out to be 0%; in assay [3] (setting [8]), 0%; in assay [5] (setting [10]), 10%. Further, the values for the pest or weed control at 250 g/ha in assay [2] (setting [9]), in assay [3] (setting [9]) and in assay [5] (setting [11]) were 60%, 0% and 0%, respectively.

As to `Cc1nn(-c2c(N)cc(Cl)cc2F)c(=O)n1C(F)F` [Compound 6-22], the figures for the pest or weed control at 63 g/ha in assay [2] (setting [8]), in assay [3] (setting [8]) and in assay [5] (setting [10]) were 70%, 0% and 30%, respectively. Also, the pest or weed control at 250 g/ha in assay [2] (setting [9]) turned out to be 100%; in assay [3] (setting [9]) it was 0%; in assay [5] (setting [11]), 100%.

With `Cc1nn(-c2c(F)cc(Cl)cc2NC(=O)c2ccc3ccccc3c2)c(=O)n1C(F)F` [Compound 6-24], the pest or weed control at 63 g/ha in assay [2] (setting [8]) worked out at 0%; in assay [3] (setting [8]), 0%; in assay [5] (setting [10]), 20%. Also, the pest or weed control at 250 g/ha turned out to be 80% in assay [2] (setting [9]), 0% in assay [3] (setting [9]) and 100% in assay [5] (setting [11]).

Take `COc1c(Cl)cc(F)c(-c2nn(C)c(C(F)(F)F)c2Cl)c1NC(=O)c1ccc2ccccc2c1` [Compound 7-14]: the figures for the pest or weed control at 250 g/ha in assay [2] (setting [9]), in assay [3] (setting [9]) and in assay [5] (setting [11]) were 70%, 10% and 80%, respectively. Further, the pest or weed control at 63 g/ha in assay [5] (setting [10]) was found to be 40%.

Turning to `COc1c(Cl)cc(F)c(-c2nn(C)c(C(F)(F)F)c2Cl)c1NC(=O)C=Cc1ccccc1` [Compound 7-15], the pest or weed control at 63 g/ha stood at 100% in assay [2] (setting [8]), 0% in assay [3] (setting [8]) and 80% in assay [5] (setting [10]). Also, the pest or weed control at 250 g/ha in assay [2] (setting [9]) came out at 100%; in assay [3] (setting [9]), 0%; in assay [5] (setting [11]), 100%.

`Nc1c(O)c(Cl)cc(F)c1N1C(=O)C2=C(CCCC2)C1=O` [Compound 8-2, 2-amino-6-chloro-4-fluoro-3-tetrahydrophthalimido)phenol]: the pest or weed control at 63 g/ha was 95% in assay [2] (setting [8]), 30% in assay [3] (setting [8]) and 90% in assay [5] (setting [10]). Besides, the pest or weed control at 250 g/ha in assay [2] (setting [9]) is 100%; in assay [3] (setting [9]) it was 30%; in assay [5] (setting [11]) it was 100%. The “Post-emerge Herbicidal Activity AMBEL” value in assay [4] (setting [8]) stood at 30; in assay [4] (setting [9]) it was 90.

Consider `CC(C)Oc1c(Cl)cc(F)c(N2C(=O)C3=C(CCCC3)C2=O)c1N` [Compound 8-4, N-(2-amino-4-chloro-6-fluoro-3-isopropyloxyphenyl)tetrahydrophthalimide], for which the pest or weed control at 63 g/ha was determined as 70% in assay [2] (setting [8]), 0% in assay [3] (setting [8]) and 60% in assay [5] (setting [10]). The pest or weed control at 250 g/ha in assay [2] (setting [9]) worked out at 90%; in assay [3] (setting [9]), 0%; in assay [5] (setting [11]), 100%.

As for `COc1c(Cl)cc(F)c(N2C(=O)c3ccccc3C2=O)c1NC(=O)c1ccc2ccccc2c1` [Compound 13-3, N-[4-chloro-6-fluoro-3-methoxy-2-(2-naphthoyl)aminophenyl]phthalimide], the pest or weed control at 63 g/ha in assay [2] (setting [8]) was found to be 90%; in assay [3] (setting [8]), 0%. For the same compound, the pest or weed control at 250 g/ha in assay [2] (setting [9]) stood at 90%; in assay [3] (setting [9]), 10%. Besides, the “Pre-emerge herbicidal activity, phytotoxicity rating AMARE” value in assay [5] (63 g ai/ha) and in assay [5] (250 g ai/ha) was 100 throughout.
